± gives the expanded uncertainty stated by the source.
Conditions: 88 kPa, Liquid, Vibrating tube method

mass density (298.15 K) [kg/m3]	mass density (313.15 K) [kg/m3]	mass density (333.15 K) [kg/m3]	SMILES
1202.71 ± 4.2	1192.29 ± 4.2	1178.73 ± 4.2	CCCCn1cc[n+](C)c1.F[B-](F)(F)F [1-butyl-3-methylimidazolium tetrafluoroborate]
1063.86 ± 4.1	1054.55 ± 4.1	1042.42 ± 4.1	CCCCCCCCn1cc[n+](C)c1.O=[N+]([O-])[O-] [1-methyl-3-octylimidazolium nitrate]

SMILES	mass density (298.15 K) [kg/m3]	mass density (313.15 K) [kg/m3]	mass density (333.15 K) [kg/m3]
CCCCCCn1cc[n+](C)c1.N#C[S-] [1-hexyl-3-methylimidazolium thiocyanate]	1036.21 ± 4.1	1027.55 ± 4.1	1016.12 ± 4.1
